Holding throughout (assay): radiolabelled [3H]-xanthine uptake in intact  cells
Holding throughout (assay type): cell-based, Aspergillus nidulans
Holding throughout (conditions): labelled compound

The subject of assay [1] is T1, UapA/Jen1NT94-CT33.
T1 construct: Jen1 1-94 / intact UapA / Jen1 584-616, GFP-tagged, GAL promoter, in S. cerevisiae; one polypeptide; with Carboxylic acid transporter protein homolog; Carboxylic acid transporter protein homolog

Assay [2] has as its system T2, UapA/Jen1CT33.
T2 construct: Jen1 residues 584-616 fused C-terminally to intact UapA, GFP-tagged, GAL promoter, in S. cerevisiae; one polypeptide; with Carboxylic acid transporter protein homolog

In assay [3] the test system is T3, UapA/Jen1NT94.
T3 construct: Jen1 residues 1-94 fused N-terminally to intact UapA, GFP-tagged, GAL promoter, in S. cerevisiae; one polypeptide; with Carboxylic acid transporter protein homolog

The structures appear in SMILES notation.

In the case of `O=c1[nH]c(=O)c2[nH]cnc2[nH]1` [xanthine], the Michaelis-Menten constant (Km) – broadly, the substrate concentration at which the rate is half of its maximum – in assay [1] amounted to 101 ± 10 µM; in assay [2], 10 ± 3 µM; in assay [3] it was 5 ± 2 µM.
